Test [1] concerns chloride sensor (ECFP - peptide linker - EYFP with mutations I152L, V163S, H148Q; SEQ ID No. 5). Nature of the test: Calibration of chloride sensor emission ratio R=F527/F485 in patch-pipette dialysed cells. It counts as cell-based. As to conditions: in HEK293 and BOSC23 cells; Rmax = 2,39, Rmin = 0,49. The protocol:
The chloride sensor was expressed in human kidney derived cell lines (HEK293 and BOSC23) using a calcium phosphate transfection procedure.
Measurements of fluorescence are likely to reflect the average [Cl-] in the intracellular compartment.
The ratio (R) of fluorescence emission of the EYFP acceptor to that of the ECFP donor is R=F527/F485.
To calibrate the fluorescence of chloride sensor within these cells, R is measured while using a patch pipette to manipulate the cytoplasmic concentration of anions. A nominally Cl- free solution containing 150 mM gluconate is used to determine the maximal emission ratio for the chloride sensor (Rmax), whereas a solution containing a saturating concentration (150mM) of Cl- defines the minimal emission ratio (Rmin). The relationship between R and intermediates values of [Cl-] is then determined. This relationship could be described as : [Cl-]= K'd (Rmax - R)/(R - Rmin), [formula] with Rmax = 2,39, Rmin = 0,49 and K'd = 87mM. this calibration curve can then be used to convert R values measured in intracellular compartment of living cells into [Cl-].

Test [2] has as its target YFP double mutant YFP-H148Q/V163S (Aequorea victoria, UniProt P42212, H148Q/H231L/S65G/S72A/T203Y/V163S/V68L). As to conditions: physiological pH (7,35); cited from earlier work.
The target in test [3] is YFP double mutant YFP-H148Q/I152L (Aequorea victoria, UniProt P42212, H148Q/H231L/I152L/S65G/S72A/T203Y/V68L). As to conditions: cited from earlier work.

pKd: −log10 of the molar value.

A word on the pKd: it is the negative decadic logarithm of the Kd, by convention in mol/L.

On to chloride [Cl^-], for which the pKd was 1.06 in test [1], 1.41 in test [2] and 1.07 in test [3]. For the same substance, the “binding kinetics (τ)” value in test [2] was 1900 ms; in test [3], 52 ms.

(Values after patent EP1514922A1 (priority 2003, dated 2005).)
